This passage reports Dmax and DC50 results from patent publication US20250114345A1, “COMPOUNDS AND COMPOSITIONS AS CBP/P300 DEGRADERS AND USES THEREOF” (Oncopia Therapeutics, Inc. d/b/a/ SK Life Science Labs, priority 2023, published 2025).

The structures appear in SMILES notation.

This assay concerns the target T1, p300 (Homo sapiens, UniProt Q09472).
T1 construct: host or cells: A549 P300 HiBit cells
Nature of the assay: P300 degradation, HiBit technology in A549 P300 HiBit cells (2 h). The class given is cell-based. Particulars: 2 hrs post treatment; for Dmax: A549, A549 P300 HiBit cells; for DC50: A549 P300 HiBit cells. The procedure: p300 and CBP degradation potency and Dmax were determined using in cell western (ICW) assay technology in H1299 cells or HiBit technology in A549 HiBit cells.
A549 P300 HiBit and A549 CBP HiBit cells were plated in separate 384-well, TC treated, white-opaque, flat-bottomed microplate. Cells were plated at a cell density of 0.2×10^4 cells per well in assay media comprised of F-12K, 10% heat inactivated FBS, and 1% penicillin/streptomycin. Assay microplates containing HiBit cells were placed in a 37° C., 5% CO2, tissue culture incubator and left to equilibrate overnight. The next day cells were treated with serial dilutions of test compound made up of 10 mM stock solutions in DMSO. 384-Well plates containing treated cells were then placed back into a 37° C., 5% CO2, tissue culture incubator. Assay microplates containing A549 P300 HiBit cells were incubated for 2 hrs post treatment before P300 destruction was assessed, while microplates containing A549 CBP HiBit cells were incubated for 24 hrs post treatment before CBP destruction was determined. On the day of each assay time point, microplates were removed from the tissue culture incubator and prepared HiBit Lytic detection buffer (Promega, cat #N3O40) was added to each plate. Plates were covered with aluminum foil and incubated for ten minutes at room temperature on an orbital shaker. After incubation, luminescent signal of each plate was measured using the Envision instrument (Perkin Elmer).
For orientation: With HiBiT, luminescence reflects the tagged protein that the partner subunit can reach.

As a reminder, the Dmax is the greatest extent of degradation seen. One may read the DC50 as the midpoint of the concentration-degradation curve. A lower DC50 goes with a more potent degrader.

T1 sequence (Q09472 whole entry): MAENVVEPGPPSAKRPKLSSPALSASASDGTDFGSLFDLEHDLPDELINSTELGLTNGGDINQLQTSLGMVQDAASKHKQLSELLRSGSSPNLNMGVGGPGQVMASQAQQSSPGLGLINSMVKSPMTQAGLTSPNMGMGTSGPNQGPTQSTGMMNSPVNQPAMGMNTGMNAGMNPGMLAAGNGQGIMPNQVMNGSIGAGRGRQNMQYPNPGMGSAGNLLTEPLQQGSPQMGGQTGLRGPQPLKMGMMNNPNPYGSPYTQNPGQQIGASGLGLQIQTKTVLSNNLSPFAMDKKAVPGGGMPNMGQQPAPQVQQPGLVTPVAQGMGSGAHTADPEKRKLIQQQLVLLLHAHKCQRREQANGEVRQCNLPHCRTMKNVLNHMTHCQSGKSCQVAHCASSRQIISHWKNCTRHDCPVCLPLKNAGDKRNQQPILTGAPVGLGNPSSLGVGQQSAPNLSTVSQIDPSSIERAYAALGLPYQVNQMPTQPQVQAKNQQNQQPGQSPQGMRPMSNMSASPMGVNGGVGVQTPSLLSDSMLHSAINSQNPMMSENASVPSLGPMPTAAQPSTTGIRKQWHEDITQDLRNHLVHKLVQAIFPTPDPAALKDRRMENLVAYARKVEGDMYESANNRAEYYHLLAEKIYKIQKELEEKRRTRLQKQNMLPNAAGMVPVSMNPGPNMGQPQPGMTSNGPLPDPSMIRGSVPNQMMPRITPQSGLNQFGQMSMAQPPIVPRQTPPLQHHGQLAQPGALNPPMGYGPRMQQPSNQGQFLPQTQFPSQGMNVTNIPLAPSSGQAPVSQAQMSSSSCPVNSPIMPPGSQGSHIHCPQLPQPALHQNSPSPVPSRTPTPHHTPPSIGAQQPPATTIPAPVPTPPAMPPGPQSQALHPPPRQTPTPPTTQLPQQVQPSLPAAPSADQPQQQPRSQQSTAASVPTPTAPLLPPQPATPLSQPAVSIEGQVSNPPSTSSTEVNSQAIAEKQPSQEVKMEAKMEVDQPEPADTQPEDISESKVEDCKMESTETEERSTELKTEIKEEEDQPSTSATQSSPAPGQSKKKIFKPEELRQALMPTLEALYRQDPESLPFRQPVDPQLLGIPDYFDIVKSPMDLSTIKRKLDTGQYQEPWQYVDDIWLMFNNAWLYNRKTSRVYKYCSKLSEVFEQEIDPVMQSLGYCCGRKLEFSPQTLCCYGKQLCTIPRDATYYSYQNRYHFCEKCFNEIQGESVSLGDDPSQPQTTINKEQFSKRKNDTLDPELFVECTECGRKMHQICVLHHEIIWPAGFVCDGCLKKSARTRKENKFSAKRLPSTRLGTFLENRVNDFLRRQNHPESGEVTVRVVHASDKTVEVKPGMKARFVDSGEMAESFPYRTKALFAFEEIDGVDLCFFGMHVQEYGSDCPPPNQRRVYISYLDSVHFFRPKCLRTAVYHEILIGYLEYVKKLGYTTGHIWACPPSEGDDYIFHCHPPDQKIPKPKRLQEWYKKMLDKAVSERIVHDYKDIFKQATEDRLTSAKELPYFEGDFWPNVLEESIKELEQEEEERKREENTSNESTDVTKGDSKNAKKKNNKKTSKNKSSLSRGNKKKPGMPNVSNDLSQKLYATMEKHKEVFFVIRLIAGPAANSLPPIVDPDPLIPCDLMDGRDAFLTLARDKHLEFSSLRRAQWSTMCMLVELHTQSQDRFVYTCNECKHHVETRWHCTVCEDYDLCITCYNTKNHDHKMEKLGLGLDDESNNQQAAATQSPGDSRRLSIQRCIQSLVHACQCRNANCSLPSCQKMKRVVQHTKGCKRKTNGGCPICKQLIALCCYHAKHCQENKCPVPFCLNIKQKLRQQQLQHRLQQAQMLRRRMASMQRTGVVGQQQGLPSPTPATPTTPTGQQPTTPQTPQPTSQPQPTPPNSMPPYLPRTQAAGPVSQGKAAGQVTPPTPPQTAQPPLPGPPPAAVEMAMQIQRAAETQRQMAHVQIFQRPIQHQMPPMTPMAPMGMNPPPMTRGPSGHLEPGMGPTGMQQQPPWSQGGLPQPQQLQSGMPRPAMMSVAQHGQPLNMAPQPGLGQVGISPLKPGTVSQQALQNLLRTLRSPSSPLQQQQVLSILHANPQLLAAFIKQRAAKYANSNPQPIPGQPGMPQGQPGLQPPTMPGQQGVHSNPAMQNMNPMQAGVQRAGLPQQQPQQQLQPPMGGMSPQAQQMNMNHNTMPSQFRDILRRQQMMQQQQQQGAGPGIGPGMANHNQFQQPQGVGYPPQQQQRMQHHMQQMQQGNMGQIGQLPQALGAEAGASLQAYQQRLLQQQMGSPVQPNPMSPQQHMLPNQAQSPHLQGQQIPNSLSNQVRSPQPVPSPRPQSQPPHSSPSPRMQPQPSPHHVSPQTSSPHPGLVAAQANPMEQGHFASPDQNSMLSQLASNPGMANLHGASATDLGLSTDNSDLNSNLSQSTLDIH

The compound `COc1nn(C2CCC(=O)NC2=O)c2cc(C#CCNC(=O)c3ccc(-c4cc5cccc(-c6cc(C(C)C)c7c(c6)n(C)c(=O)n7C)c5cn4)cn3)ccc12` (stereo not shown) [Example A4, N-(3-(1-(2,6-Dioxopiperidin-3-yl)-3-methoxy-1H-indazol-6-yl)prop-2-yn-1-yl)-5-(8-(7-isopropyl-1,3-dimethyl-2-oxo-2,3-dihydro-1H-benzo[d]imidazol-5-yl)isoquinolin-3-yl)picolinamide] came in with a Dmax of more than 80% and a DC50 of 10 to 99 nM.
In the case of `CC(C)c1cc(-c2cccc3cc(-c4ccc(C(=O)NCC#Cc5cc6c(cn5)cnn6C5CCC(=O)NC5=O)nc4)ncc23)cc2c1n(C)c(=O)n2C` (stereo not shown) [Example A6, N-(3-(1-(2,6-Dioxopiperidin-3-yl)-1H-pyrazolo[4,3-c]pyridin-6-yl)prop-2-yn-1-yl)-5-(8-(7-isopropyl-1,3-dimethyl-2-oxo-2,3-dihydro-1H-benzo[d]imidazol-5-yl)isoquinolin-3-yl)picolinamide], the Dmax was 60 to 79% and the DC50 was in the range of 1 to 9.9 nM.
For `CC(C)c1cc(-c2cccc3cc(-c4ccc(C(=O)NCC#Cc5ccc6c(C#N)nn(C7CCC(=O)NC7=O)c6c5)nc4)ncc23)cc2c1n(C)c(=O)n2C` (stereo not shown) [Example A7, N-(3-(3-Cyano-1-(2,6-dioxopiperidin-3-yl)-1H-indazol-6-yl)prop-2-yn-1-yl)-5-(8-(7-isopropyl-1,3-dimethyl-2-oxo-2,3-dihydro-1H-benzo[d]imidazol-5-yl)isoquinolin-3-yl)picolinamide] the same measures were more than 80% and 10 to 99 nM.
For `Cc1cc2cnn(C3CCC(=O)NC3=O)c2cc1C#CCNC(=O)c1ccc(-c2cc3cccc(-c4cc(C(C)C)c5c(c4)n(C)c(=O)n5C)c3cn2)cn1` (stereo not shown) [Example A8, N-(3-(1-(2,6-Dioxopiperidin-3-yl)-5-methyl-1H-indazol-6-yl)prop-2-yn-1-yl)-5-(8-(7-isopropyl-1,3-dimethyl-2-oxo-2,3-dihydro-1H-benzo[d]imidazol-5-yl)isoquinolin-3-yl)picolinamide], the Dmax is 60 to 79% and the DC50 fell in the range of 10 to 99 nM.
For `CC(C)c1cc(-c2cccc3cc(-c4ccc(C(=O)NCC#Cc5cc(N(C)C)c6cnn(C7CCC(=O)NC7=O)c6c5)nc4)ncc23)cc2c1n(C)c(=O)n2C` (stereo not shown) [Example A9, N-(3-(4-(Dimethylamino)-1-(2,6-dioxopiperidin-3-yl)-1H-indazol-6-yl)prop-2-yn-1-yl)-5-(8-(7-isopropyl-1,3-dimethyl-2-oxo-2,3-dihydro-1H-benzo[d]imidazol-5-yl)isoquinolin-3-yl)picolinamide] the same measures were 60 to 79% and 10 to 99 nM.
On to `CC(C)c1cc(-c2cccc3cc(-c4ccc(C(=O)NCC#Cc5ccc6cnn(C7CCC(=O)NC7=O)c6n5)nc4)ncc23)cc2c1n(C)c(=O)n2C` (stereo not shown) [Example A12, N-(3-(1-(2,6-Dioxopiperidin-3-yl)-1H-pyrazolo[3,4-b]pyridin-6-yl)prop-2-yn-1-yl)-5-(8-(7-isopropyl-1,3-dimethyl-2-oxo-2,3-dihydro-1H-benzo[d]imidazol-5-yl)isoquinolin-3-yl)picolinamide], for which the Dmax lay in the range of 20 to 39% and the DC50 was in the range of 10 to 99 nM.
`CC(C)c1cc(-c2cccc3cc(-c4ccc(C(=O)NCC#Cc5cnc6ccn(C7CCC(=O)NC7=O)c6c5)nc4)ncc23)cc2c1n(C)c(=O)n2C` (stereo not shown) [Example A13, N-(3-(1-(2,6-Dioxopiperidin-3-yl)-1H-pyrrolo[3,2-b]pyridin-6-yl)prop-2-yn-1-yl)-5-(8-(7-isopropyl-1,3-dimethyl-2-oxo-2,3-dihydro-1H-benzo[d]imidazol-5-yl)isoquinolin-3-yl)picolinamide] yielded a Dmax of more than 80% and a DC50 of 1 to 9.9 nM.
`CC(C)c1cc(-c2cccc3cc(-c4ccc(C(=O)NCC#Cc5ccc6c(c5)nnn6C5CCC(=O)NC5=O)nc4)ncc23)cc2c1n(C)c(=O)n2C` (stereo not shown) [Example A17, N-(3-(1-(2,6-Dioxopiperidin-3-yl)-1H-benzo[d][1,2,3]triazol-5-yl)prop-2-yn-1-yl)-5-(8-(7-isopropyl-1,3-dimethyl-2-oxo-2,3-dihydro-1H-benzo[d]imidazol-5-yl)isoquinolin-3-yl)picolinamide] registered a Dmax of less than 20% and a DC50 of more than 1000 nM.
Taken in the same sequence, the figures for `CC(C)c1cc(-c2cccc3cc(-c4ccc(C(=O)NCC#Cc5ccc6c(C#N)cn(C7CCC(=O)NC7=O)c6c5)nc4)ncc23)cc2c1n(C)c(=O)n2C` (stereo not shown) [Example A19, N-(3-(3-Cyano-1-(2,6-dioxopiperidin-3-yl)-1H-indol-6-yl)prop-2-yn-1-yl)-5-(8-(7-isopropyl-1,3-dimethyl-2-oxo-2,3-dihydro-1H-benzo[d]imidazol-5-yl)isoquinolin-3-yl)picolinamide] were 60 to 79% and 100 to 999 nM.
Regarding `CC(C)c1cc(-c2cccc3cc(-c4ccc(C(=O)NCC#Cc5cnc6cnn(C7CCC(=O)NC7=O)c6c5)nc4)ncc23)cc2c1n(C)c(=O)n2C` (stereo not shown) [Example A20, N-(3-(1-(2,6-Dioxopiperidin-3-yl)-1H-pyrazolo[4,3-b]pyridin-6-yl)prop-2-yn-1-yl)-5-(8-(7-isopropyl-1,3-dimethyl-2-oxo-2,3-dihydro-1H-benzo[d]imidazol-5-yl)isoquinolin-3-yl)picolinamide], the Dmax is 60 to 79% and the DC50 was 1 to 9.9 nM.
`CC(C)c1cc(-c2cccc3cc(-c4ccc(C(=O)NCC#Cc5cc(C#N)c6cnn(C7CCC(=O)NC7=O)c6c5)nc4)ncc23)cc2c1n(C)c(=O)n2C` (stereo not shown) [Example A21, N-(3-(4-Cyano-1-(2,6-dioxopiperidin-3-yl)-1H-indazol-6-yl)prop-2-yn-1-yl)-5-(8-(7-isopropyl-1,3-dimethyl-2-oxo-2,3-dihydro-1H-benzo[d]imidazol-5-yl)isoquinolin-3-yl)picolinamide] yielded a Dmax of 60 to 79% and a DC50 of 100 to 999 nM.
Consider `CC(C)c1cc(-c2cccc3cc(-c4ccc(C(=O)NCC#Cc5cc6c(ccn6C6CCC(=O)NC6=O)cn5)nc4)ncc23)cc2c1n(C)c(=O)n2C` (stereo not shown) [Example A22, N-(3-(1-(2,6-Dioxopiperidin-3-yl)-1H-pyrrolo[3,2-c]pyridin-6-yl)prop-2-yn-1-yl)-5-(8-(7-isopropyl-1,3-dimethyl-2-oxo-2,3-dihydro-1H-benzo[d]imidazol-5-yl)isoquinolin-3-yl)picolinamide], for which the Dmax was 20 to 39% and the DC50 is 10 to 99 nM.
For `COc1cc(C#CCNC(=O)c2ccc(-c3cc4cccc(-c5cc(C(C)C)c6c(c5)n(C)c(=O)n6C)c4cn3)cn2)cc2c1cnn2C1CCC(=O)NC1=O` (stereo not shown) [Example A26, N-(3-(1-(2,6-Dioxopiperidin-3-yl)-4-methoxy-1H-indazol-6-yl)prop-2-yn-1-yl)-5-(8-(7-isopropyl-1,3-dimethyl-2-oxo-2,3-dihydro-1H-benzo[d]imidazol-5-yl)isoquinolin-3-yl)picolinamide], the Dmax was 60 to 79% and the DC50 is 10 to 99 nM.
On to `COc1cc2cnn(C3CCC(=O)NC3=O)c2cc1C#CCNC(=O)c1ccc(-c2cc3cccc(-c4cc(C(C)C)c5c(c4)n(C)c(=O)n5C)c3cn2)cn1` (stereo not shown) [Example A27, N-(3-(1-(2,6-Dioxopiperidin-3-yl)-5-methoxy-1H-indazol-6-yl)prop-2-yn-1-yl)-5-(8-(7-isopropyl-1,3-dimethyl-2-oxo-2,3-dihydro-1H-benzo[d]imidazol-5-yl)isoquinolin-3-yl)picolinamide], for which the Dmax was 60 to 79% and the DC50 is 1 to 9.9 nM.
